Measured values as given in US12472144B2, “Pharmaceutical composition comprising eliglustat” (Amneal Pharmaceuticals LLC, priority 2017, dated 2025).
Where two headings read alike, the source gives them in different places. Values belong to the compound of their own block, whether it stands above or below them.

How the values were obtained:
[1] = Comparative pharmacokinetic study of sublingual thin film and oral formulation in rabbits; type: in vivo; settings: rabbit, blood, male New Zealand White Rabbits
Excerpt: Animals. […] No non-disintegrated film fragments were observed.

[2] = presence of food; cited from earlier work
[3] = in vitro, human; cited from earlier work
[4] = cited from earlier work; for oral bioavailability: significant first pass metabolism
[5] = BCS class I drug substance; cited from earlier work
[6] = other: sublingual, sublingual route, oral thin film, 10 mg
[7] = oral dosing by gavage as a solution

AUC(0-inf) [1, 6]: 232 ± 106 ng·h/mL
AUC(0-t) [1, 6]: 226 ± 107 ng·h/mL
Cmax [1, 6]: 79.4 ± 51.6 ng/mL
MRT last [1, 6]: 2.72 ± 0.359 h
Tmax [1, 6]: 0.667 ± 0.289 h
half-life [1, 6]: 2.55 ± 0.511 h
AUC(0-inf) [1, 7]: 9.6 ± 6.04 ng·h/mL
AUC(0-t) [1, 7]: 6.31 ± 4.85 ng·h/mL
Cmax [1, 7]: 3.31 ± 2.11 ng/mL
MRT last [1, 7]: 1.53 ± 0.546 h
Tmax [1, 7]: 0.583 ± 0.382 h
half-life [1, 7]: 2.35 ± 0.341 h
Structure (SMILES): CCCCCCCC(=O)N[C@H](CN1CCCC1)[C@H](O)c1ccc2c(c1)OCCO2.O=C(O)C(O)C(O)C(=O)O [Eliglustat tartrate, N-((1R,2R)-1-(2,3-dihydrobenzo [b] [1,4]dioxin-6-yl)-1-hydroxy-3-(pyrrolidin-1-yl)propan-2-yl) octanamide (2R,3R)-2,3-dihydroxysuccinate]
effect of food on extent of absorption [2]: did not affect the extent of absorption

Structure (SMILES): CCCCCCCC(=O)N[C@H](CN1CCCC1)[C@H](O)c1ccc2c(c1)OCCO2 [Genz-99067]
first-pass effect indicated by metabolic stability [3]: significant first-pass effect

Structure (SMILES): CCCCCCCC(=O)N[C@H](CN1CCCC1)[C@H](O)c1ccc2c(c1)OCCO2 [eliglustat]
absolute bioavailability ([4]; CERDELGA capsule, CHMP European Assessment report): 4.49%±4.13
oral bioavailability [4]: less than 5%
oral bioavailability ([4]; listed as Eliglustat): < 5%
solubility [5]: high
